Values quoted from earlier work in US7132450B2, “Hepatic disorder suppressant” (Kagome Co., Ltd., priority 2000, dated 2006).

How the values were obtained:
[1] = tested on: NO and O2^− generation; details: reported in literature
[2] = reported in literature

SMILES | inhibitory effect on NO and O2^− generation [1] | growth suppressing effect [2]
CCCCC/C=C\C/C=C\CCCCC/C=C/C(=O)CC(O)COC(C)=O (stereo not drawn) [Compound 4] | has inhibitory effect on NO and O2^− generation | 
CCCCC/C=C\C/C=C\CCCCCCCC(=O)CC(O)COC(C)=O (stereo not drawn) [Compound 5, persin] | inhibitory effect on NO and O2^− generation | various growth suppressing effect
